Reference: patent US20250326753A1, “DUAL CXCR4-BTK INHIBITORS” (X4 Pharmaceuticals, Inc., priority 2022, published 2025)
Read-outs that look alike come from different tables or passages of the source.

Columns and labels:
ACK1 = target: T1, ACK1 (Homo sapiens, UniProt Q07912); assay: PanQinase kinase panel: ACK1; type: biochemical
T1 construct: purchased Reaction Biology Europe GmbH
Description: (§1) Screening procedures were performed in accordance with the company's on-line protocol [accessed on-line Mar.
(§2) For each kinase, the median value of the cpm of three wells was defined as “low control” (n=3). This value reflects unspecific binding of radioactivity to the plate in the absence of a protein kinase but in the presence of the substrate. Additionally, for each kinase the median value of the cpm of three other wells was taken as the “high control,” i.e. full activity in the absence of any inhibitor (n=3). The difference between high and low control of each enzyme was taken as 100% activity.
(§3) As part of the data evaluation the low control of each kinase was subtracted from the high control value as well as from their corresponding “compound values”. The residual activity (in %) for each compound well was calculated by using the following formula: Res. Activity (%)=100×[(signal of compound−low control)/(high control−low control)].

CK1epsilon = target: T2, CK1epsilon (Homo sapiens, UniProt P49674); assay: PanQinase kinase panel: CK1epsilon; type: biochemical; conditions: read-out: INHIBITORY EFFECT @ 1 uM: CK1epsilon
T2 construct: purchased Reaction Biology Europe GmbH
T2 sequence (P49674 whole entry): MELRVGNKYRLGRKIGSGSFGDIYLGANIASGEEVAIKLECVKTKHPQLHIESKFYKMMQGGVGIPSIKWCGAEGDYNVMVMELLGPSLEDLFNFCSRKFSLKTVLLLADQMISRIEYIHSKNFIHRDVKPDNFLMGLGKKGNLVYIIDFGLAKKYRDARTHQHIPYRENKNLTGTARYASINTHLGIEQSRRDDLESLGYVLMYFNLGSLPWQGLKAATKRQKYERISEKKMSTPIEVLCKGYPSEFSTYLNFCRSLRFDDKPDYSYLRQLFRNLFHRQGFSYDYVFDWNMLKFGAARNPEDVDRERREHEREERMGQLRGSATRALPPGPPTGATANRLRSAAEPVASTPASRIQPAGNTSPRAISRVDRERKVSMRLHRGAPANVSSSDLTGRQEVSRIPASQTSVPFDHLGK
Description: as §1, §2, §3

INSRR = target: T3, INSRR (Homo sapiens, UniProt P14616); assay: PanQinase kinase panel: INSRR; type: biochemical; conditions: read-out: INHIBITORY EFFECT @ 1 uM: INSRR
T3 construct: purchased Reaction Biology Europe GmbH
Description: as §1, §2, §3

ITK = target: T4, ITK (Homo sapiens, UniProt Q08881); assay: PanQinase kinase panel: ITK; type: biochemical; conditions: read-out: INHIBITORY EFFECT @ 1 uM: ITK
T4 construct: purchased Reaction Biology Europe GmbH
T4 sequence (Q08881 1-620): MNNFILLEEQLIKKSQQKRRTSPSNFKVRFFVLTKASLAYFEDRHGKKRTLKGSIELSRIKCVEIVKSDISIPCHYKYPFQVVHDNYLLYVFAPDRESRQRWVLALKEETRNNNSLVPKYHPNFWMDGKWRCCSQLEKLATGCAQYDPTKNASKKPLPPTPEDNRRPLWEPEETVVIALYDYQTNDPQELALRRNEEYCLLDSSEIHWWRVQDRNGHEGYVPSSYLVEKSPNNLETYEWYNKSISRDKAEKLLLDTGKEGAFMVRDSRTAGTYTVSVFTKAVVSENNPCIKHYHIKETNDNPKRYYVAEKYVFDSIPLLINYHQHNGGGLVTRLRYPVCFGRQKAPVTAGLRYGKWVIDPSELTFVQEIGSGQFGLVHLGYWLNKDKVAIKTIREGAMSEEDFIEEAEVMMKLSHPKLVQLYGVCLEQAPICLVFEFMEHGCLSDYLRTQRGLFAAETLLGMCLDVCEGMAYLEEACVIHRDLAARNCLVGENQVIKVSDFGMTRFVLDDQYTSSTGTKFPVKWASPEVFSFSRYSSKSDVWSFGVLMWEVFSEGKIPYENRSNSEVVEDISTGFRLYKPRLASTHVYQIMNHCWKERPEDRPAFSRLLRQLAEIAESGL
Description: as §1, §2, §3

PDGFRalpha = target: T5, PDGFRalpha (Homo sapiens, UniProt P16234); assay: PanQinase kinase panel: PDGFRalpha; type: biochemical; conditions: read-out: INHIBITORY EFFECT @ 1 uM: PDGFRalpha
T5 construct: purchased Reaction Biology Europe GmbH
T5 sequence (P16234 24-1089): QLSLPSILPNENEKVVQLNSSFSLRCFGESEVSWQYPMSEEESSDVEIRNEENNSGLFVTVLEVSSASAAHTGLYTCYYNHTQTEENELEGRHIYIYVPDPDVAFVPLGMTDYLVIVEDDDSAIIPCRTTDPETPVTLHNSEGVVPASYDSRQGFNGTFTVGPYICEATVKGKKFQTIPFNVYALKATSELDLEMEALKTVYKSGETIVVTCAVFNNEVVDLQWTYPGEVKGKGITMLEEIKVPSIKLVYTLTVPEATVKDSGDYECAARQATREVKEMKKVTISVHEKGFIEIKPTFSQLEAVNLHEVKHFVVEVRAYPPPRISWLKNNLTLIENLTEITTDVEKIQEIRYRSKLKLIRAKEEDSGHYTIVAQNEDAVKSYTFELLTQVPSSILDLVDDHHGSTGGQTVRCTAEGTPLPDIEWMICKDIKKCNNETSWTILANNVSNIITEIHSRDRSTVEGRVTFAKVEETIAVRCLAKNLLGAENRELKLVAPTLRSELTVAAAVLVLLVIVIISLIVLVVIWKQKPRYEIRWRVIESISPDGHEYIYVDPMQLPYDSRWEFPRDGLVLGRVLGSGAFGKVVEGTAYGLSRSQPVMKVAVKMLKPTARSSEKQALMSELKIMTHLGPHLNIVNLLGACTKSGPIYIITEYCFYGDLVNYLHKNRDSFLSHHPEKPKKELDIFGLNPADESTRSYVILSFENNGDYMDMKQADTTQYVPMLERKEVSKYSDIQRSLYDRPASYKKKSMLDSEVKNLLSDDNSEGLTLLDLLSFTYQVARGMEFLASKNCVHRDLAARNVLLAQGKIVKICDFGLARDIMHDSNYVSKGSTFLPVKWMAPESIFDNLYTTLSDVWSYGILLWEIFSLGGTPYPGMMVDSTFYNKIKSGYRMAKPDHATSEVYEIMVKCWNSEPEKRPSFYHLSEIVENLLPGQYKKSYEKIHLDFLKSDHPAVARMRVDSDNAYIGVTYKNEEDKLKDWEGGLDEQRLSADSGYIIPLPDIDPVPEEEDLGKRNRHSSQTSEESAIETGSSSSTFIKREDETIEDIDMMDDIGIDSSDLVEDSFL
Description: as §1, §2, §3

T98G = assay: Glioblastoma multiforme cell proliferation assay (CellTiter Glo), T98G; type: cell-based; conditions: Homo sapiens; for Emax: read-out: GBM-T-98G Cell Proliferation Emax %
Description: Inhibition of glioblastoma multiforme cell proliferation by compounds of the present invention was evaluated in U-87 MG (ATCC; Cat. No. HTB-14; Lot. No. 5018014) and T98G (ATCC; Cat. No. CRL-1690; Lot. No. 58267513) cell lines. These are adherent cell lines isolated from glioblastoma multiforme/malignant glioma, which express both CXCR4 and BTK (see Zhou et al. 2002 and Yue et al. 2017).
Cell viability was analyzed with the CellTiter Glo Cell assay kit ([…], Cat. No. G7573, Lot. No. 0000474103), according to the manufacturer's instruction.
U-87 MG and T98G cells were seeded onto 384-well opaque-walled clear bottom plates (Corning, Cat. No. 3765, Lot. No. 34319047) in EMEM (Invitrogen, Cat. No. 11095-080; Lot. No. 2276656) supplemented with 10% FBS (Invitrogen, Cat. No. 10099-141C, Lot. No. 2145169CP), at a seeding density of 1000 or 1200 cells per well, respectively, and then incubated in 5% CO2 at 37° C. overnight.
Compounds were prepared as stock solutions of 30 mM in DMSO (Sigma, Cat. No. 276855-1L. Lot. No. SHBL5610). Compounds were added to the cells, with 10 dose points in duplicates, in 3-fold dilution from a top concentration of 30 μM (final DMSO concentration […]), and incubated in 5% CO2 at 37° C. for 96 hr.
The 384-well plates were equilibrated at room temperature for approximately 30 min. 25 μl of CellTiter-Glo® Reagent was added to each well and mixed for 10 min on an orbital shaker to induce cell lysis. The 384-well plates were incubated at room temperature for 10 min to stabilize luminescent signal. Luminescence was detected on a PerkinElmer EnVision Multimode Plate Reader (measurement time 0.1s) as relative luminescence units (RLU).

VEGFR2 = target: T6, VEGFR2 (Homo sapiens, UniProt P35968); assay: PanQinase kinase panel: VEGFR2; type: biochemical; conditions: read-out: INHIBITORY EFFECT @ 1 uM: VEGFR2
T6 construct: purchased Reaction Biology Europe GmbH
T6 sequence (P35968 20-1356): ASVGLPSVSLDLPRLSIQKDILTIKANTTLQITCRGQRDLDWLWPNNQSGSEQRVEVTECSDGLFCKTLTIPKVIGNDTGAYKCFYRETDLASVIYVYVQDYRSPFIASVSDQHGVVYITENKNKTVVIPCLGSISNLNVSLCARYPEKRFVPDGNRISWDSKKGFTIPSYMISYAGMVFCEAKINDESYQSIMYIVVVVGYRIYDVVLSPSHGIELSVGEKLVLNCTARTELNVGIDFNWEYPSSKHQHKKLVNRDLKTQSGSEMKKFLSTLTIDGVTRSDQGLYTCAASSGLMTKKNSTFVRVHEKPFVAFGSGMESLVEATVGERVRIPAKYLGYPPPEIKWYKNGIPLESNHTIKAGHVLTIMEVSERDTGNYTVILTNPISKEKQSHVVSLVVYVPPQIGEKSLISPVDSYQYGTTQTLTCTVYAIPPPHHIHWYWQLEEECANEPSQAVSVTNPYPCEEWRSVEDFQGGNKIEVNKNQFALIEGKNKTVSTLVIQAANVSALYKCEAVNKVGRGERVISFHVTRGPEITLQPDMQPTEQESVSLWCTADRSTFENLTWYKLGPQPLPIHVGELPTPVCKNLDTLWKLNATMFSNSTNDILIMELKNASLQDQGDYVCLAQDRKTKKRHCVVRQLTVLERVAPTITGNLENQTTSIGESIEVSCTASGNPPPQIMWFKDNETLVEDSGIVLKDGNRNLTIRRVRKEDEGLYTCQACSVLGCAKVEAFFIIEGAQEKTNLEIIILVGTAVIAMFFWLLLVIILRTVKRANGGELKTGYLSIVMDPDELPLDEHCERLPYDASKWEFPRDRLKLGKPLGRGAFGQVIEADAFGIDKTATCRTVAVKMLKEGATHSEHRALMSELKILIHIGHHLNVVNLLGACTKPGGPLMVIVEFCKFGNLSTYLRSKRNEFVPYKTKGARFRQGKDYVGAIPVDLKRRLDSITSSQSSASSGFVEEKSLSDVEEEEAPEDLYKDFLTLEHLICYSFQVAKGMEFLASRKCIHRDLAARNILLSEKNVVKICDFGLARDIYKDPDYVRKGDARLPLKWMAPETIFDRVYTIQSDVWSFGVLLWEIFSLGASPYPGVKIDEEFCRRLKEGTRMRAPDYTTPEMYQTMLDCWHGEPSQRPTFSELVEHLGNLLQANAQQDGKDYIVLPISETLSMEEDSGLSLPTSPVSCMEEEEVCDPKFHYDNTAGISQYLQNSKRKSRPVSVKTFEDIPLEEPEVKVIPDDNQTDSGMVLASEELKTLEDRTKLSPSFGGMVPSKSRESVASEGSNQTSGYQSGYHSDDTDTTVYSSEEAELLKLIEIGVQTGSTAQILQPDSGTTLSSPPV
Description: as §1, §2, §3

ABL1 = target: T7, ABL1 (Homo sapiens, UniProt P00519); assay: PanQinase kinase panel: ABL1; type: biochemical
T7 construct: purchased Reaction Biology Europe GmbH
T7 sequence (P00519 whole entry): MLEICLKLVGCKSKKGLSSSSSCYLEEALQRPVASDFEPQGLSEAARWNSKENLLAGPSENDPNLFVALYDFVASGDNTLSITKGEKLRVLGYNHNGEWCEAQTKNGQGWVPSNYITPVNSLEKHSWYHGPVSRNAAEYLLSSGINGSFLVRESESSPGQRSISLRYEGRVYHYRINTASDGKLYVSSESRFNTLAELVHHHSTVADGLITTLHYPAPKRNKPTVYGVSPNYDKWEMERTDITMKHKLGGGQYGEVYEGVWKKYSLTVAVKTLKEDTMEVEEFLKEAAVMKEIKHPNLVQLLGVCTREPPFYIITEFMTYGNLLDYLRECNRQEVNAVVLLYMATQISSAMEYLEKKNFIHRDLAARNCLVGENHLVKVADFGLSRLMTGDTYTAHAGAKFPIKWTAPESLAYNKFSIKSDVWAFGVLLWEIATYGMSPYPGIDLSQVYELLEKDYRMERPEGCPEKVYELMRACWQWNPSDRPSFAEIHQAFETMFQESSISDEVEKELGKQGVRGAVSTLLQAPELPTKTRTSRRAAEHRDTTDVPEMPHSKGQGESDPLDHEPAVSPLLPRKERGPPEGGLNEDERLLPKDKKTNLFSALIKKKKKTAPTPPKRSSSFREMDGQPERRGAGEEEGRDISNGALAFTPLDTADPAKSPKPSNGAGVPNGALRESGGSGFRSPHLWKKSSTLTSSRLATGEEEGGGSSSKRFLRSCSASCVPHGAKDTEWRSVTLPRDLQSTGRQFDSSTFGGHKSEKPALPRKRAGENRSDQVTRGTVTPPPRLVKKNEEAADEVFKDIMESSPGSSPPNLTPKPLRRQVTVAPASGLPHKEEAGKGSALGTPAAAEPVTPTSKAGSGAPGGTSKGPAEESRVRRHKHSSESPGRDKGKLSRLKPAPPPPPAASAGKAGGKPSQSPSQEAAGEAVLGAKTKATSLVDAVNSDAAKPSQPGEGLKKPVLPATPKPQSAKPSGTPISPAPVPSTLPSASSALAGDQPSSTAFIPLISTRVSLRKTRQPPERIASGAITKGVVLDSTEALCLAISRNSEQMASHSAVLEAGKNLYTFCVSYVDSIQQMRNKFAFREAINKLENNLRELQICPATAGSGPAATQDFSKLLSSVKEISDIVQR
Description: as §1, §2, §3

[1] = read-out: INHIBITORY EFFECT @ 1 uM: ACK1
[2] = read-out: INHIBITORY EFFECT @ 1 uM: ABL1
[3] = Table 6A, cell viability, 96 hr, read-out: T98G IC50

T1 sequence (Q07912 whole entry): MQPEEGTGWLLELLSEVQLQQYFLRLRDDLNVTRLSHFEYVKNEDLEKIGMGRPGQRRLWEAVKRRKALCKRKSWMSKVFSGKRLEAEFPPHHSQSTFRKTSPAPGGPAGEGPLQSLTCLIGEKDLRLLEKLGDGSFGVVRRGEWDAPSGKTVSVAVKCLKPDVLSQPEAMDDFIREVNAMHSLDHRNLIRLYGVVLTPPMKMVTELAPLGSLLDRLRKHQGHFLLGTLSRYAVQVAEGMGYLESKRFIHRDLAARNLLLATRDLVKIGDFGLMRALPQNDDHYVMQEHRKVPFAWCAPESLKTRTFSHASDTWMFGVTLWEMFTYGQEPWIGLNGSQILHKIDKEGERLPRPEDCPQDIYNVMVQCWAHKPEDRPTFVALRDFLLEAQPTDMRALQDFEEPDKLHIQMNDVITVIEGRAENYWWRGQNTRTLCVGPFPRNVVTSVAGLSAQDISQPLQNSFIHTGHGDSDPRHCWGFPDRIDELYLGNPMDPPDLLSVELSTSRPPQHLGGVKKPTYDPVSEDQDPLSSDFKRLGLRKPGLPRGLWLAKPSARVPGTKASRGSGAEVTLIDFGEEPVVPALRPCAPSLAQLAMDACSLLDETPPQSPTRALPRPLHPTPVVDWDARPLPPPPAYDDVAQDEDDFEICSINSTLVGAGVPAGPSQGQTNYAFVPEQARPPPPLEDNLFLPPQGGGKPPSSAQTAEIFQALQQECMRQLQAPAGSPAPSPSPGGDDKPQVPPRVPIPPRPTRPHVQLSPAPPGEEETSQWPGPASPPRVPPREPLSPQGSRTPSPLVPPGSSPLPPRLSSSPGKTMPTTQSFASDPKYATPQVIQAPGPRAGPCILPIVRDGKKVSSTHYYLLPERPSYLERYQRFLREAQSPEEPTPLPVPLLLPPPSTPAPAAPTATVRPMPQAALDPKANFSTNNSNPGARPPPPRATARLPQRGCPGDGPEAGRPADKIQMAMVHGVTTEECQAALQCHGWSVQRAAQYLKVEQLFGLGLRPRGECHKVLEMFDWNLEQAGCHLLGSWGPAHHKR

Row | SMILES | inhibition at 1 µM (ACK1; [1]) | inhibition at 1 µM (CK1epsilon) | inhibition at 1 µM (INSRR) | inhibition at 1 µM (ITK) | inhibition at 1 µM (PDGFRalpha) | Emax (T98G; Table 6B) | IC50 (T98G; read-out: GBM-T-98G Cell Proliferation IC50 uM) | inhibition at 1 µM (ACK1; 1 μM, read-out: inhibitor effect on ACK1) | inhibition at 1 µM (VEGFR2) | inhibition at 1 µM (ABL1; at 1 μM, read-out: inhibition of ABL1) | inhibition at 1 µM (ABL1; [2]) | IC50 (T98G; Table 6B, read-out: GBM-T-98G Cell Proliferation IC50) | IC50 (T98G; [3])
1 | O=C(c1ccc(Oc2ccccc2)cc1Cl)c1c[nH]c2ncnc(N[C@@H]3CC[C@@H](CO)OC3)c12 [ARQ-531, (2-chloro-4-phenoxyphenyl) (4-(((3R,6S)-6-(hydroxymethyl)tetrahydro-2H-pyran-3-yl)amino)-7H-pyrrolo[2,3-d]pyrimidin-5-yl) methanone] | 90 to 100% | 50 to 69% | 90 to 100% | 50 to 69% | 70 to 89% | – | – | – | – | – | – | – | –
2 | Cc1cccnc1[C@H]1CCC[C@@H](c2ncccc2C)N1CCN1CCN(C(=O)c2ccc(-c3cc4c(-c5cccc(NC(=O)c6ccccc6)c5C)ncnc4[nH]3)cc2)CC1 [Compound I-10, N-(3-(6-(4-(4-(2-((2R,6S)-2,6-bis(3-methylpyridin-2-yl)piperidin-1-yl)ethyl)piperazine-1-carbonyl)phenyl)-7H-pyrrolo[2,3-d]pyrimidin-4-yl)-2-methylphenyl)benzamide] | 90 to 100% | < 50% | < 50% | < 50% | < 50% | 93% | 2.66 µM | ≥ 90% | < 50% | 50 to 89% | 70 to 89% | – | –
3 | Cc1cc(-c2ccnc(Nc3cnn(CCN4[C@@H](c5ncccc5C)CCC[C@H]4c4ncccc4C)c3)n2)ccc1CNC(=O)N1CC(OC(C)C)C1 [Compound I-11] | – | – | – | – | – | 98% | – | – | – | – | – | 3.28 µM | –
4 | Cc1cccnc1[C@H]1CCC[C@@H](c2ncccc2C)N1CCCCNC(=O)[C@@H]1CC[C@@H](Nc2ncnc3[nH]cc(C(=O)c4ccc(Oc5ccccc5)cc4Cl)c23)CO1 [Compound I-16] | – | – | – | – | – | – | – | – | – | – | – | – | 2.2 µM
5 | Cc1cccnc1[C@H]1CCC[C@@H](c2ncccc2C)N1CCCCNC(=O)OC[C@@H]1CC[C@@H](Nc2ncnc3[nH]cc(C(=O)c4ccc(Oc5ccccc5)cc4Cl)c23)CO1 [Compound I-18] | – | – | – | – | – | – | – | – | – | – | – | – | 2.4 µM
6 | COc1ccc(F)cc1C(=O)NCc1ccc(-c2nn([C@@H](C)C(F)(F)F)c(N)c2C(N)=O)cc1 [LOXO-305, pirtobrutinib] | < 50% | < 50% | < 50% | < 50% | < 50% | – | – | – | < 50% | – | < 50% | – | –
7 | C=CC(=O)N1CCC([C@@H]2CCNc3c(C(N)=O)c(-c4ccc(Oc5ccccc5)cc4)nn32)CC1 [Zanubrutinib, (7S)-2-(4-phenoxyphenyl)-7-(1-prop-2-enoylpiperidin-4-yl)-4,5,6,7-tetrahydropyrazolo[1,5-a]pyrimidine-3-carboxamide] | < 50% | < 50% | < 50% | < 50% | < 50% | – | – | – | < 50% | – | < 50% | – | –
